# Columns and labels:
# ICH mouse model [1] = experiment: Brain water content in collagenase-induced ICH mouse model; type: in vivo; details: ipsilateral hemisphere, 48 hours after ICH; 30 mg/kg orally at 30 minutes post-collagenase; ICH group 81.2±0.3%, NS group 78.7±0.1
# Procedure: Male C57B2/6J mice (each weighs about 23 to 28 g) were anesthetized with chloral hydrate (400 mg/kg), and then a 1 mm burr hole was drilled 2 mm lateral to the midline and 0.3 mm anterior to the bregma of each mouse. Type VII-S collagenase (0.02 unit dissolved in 1 μl saline) was infused into the area of the caudate/putamen at a rate of 0.2 μl/min for 5 minutes. After an additional period of 5 minutes, the burr hole was occluded. The mice were allowed to recover with a controlled heating lamp and a controlled heating pad (37° C.) and an ICH mouse model was obtained, hereinafter referred to as “ICH group.” Additionally, a pseudo-animal that was handled with the same mode but only infused with an equal volume of normal saline (NS) was obtained, hereinafter referred to as “NS group.” […]
# After wet weights of the brain tissues of ipsilateral hemisphere and contralateral hemisphere of the “NS group,” “ICH group” and “ICH+ergostatrien-3β-ol group”) mice were measured, the brain tissues of the ipsilateral hemisphere and contralateral hemisphere were dried at 100° C. for 24 hours to obtain the dry weights. The brain water content was calculated by the following formula: (wet weight−dry weight)/wet weight×100%.
# MMP-9 = experiment: MMP-9-mediated gelatinolysis in astrocytes induced by LPS or thrombin (zymographic analysis); type: cell-based, rat
# Source text: It has been known that the MMP-9-mediated gelatinolysis in astrocytes can be induced by LPS in a concentration dependent manner. The preparation and culture of astrocytes can be seen in “Preparation of separate astroglial and oligodendroglial cell cultures from rat cerebral tissue. J. Cell Biol. 85:890-902 (1980)” and “A potent antioxidant, lycopene, affords neuroprotection against microglia activation and focal cerebral ischemia in rats. In Vivo. 18:351-356 (2004)”, which are entirely incorporated hereinto by reference.
# Astrocytes were respectively treated with vehicle (i.e., 0.2% ethanol) or ergostatrien-3β-ol (1, 5 and 10 μM) for 15 minutes, and then induced by LPS (500 ng/ml) or thrombin (10 units/ml) for 24 hours to induce the activation of MMP-9 in the astrocytes.
# COX-2 = COX-2 expression in LPS-activated BV-2 microglia cells (western blot); type: cell-based, mouse; details: for relative expression rate of COX-2, fold of that of the control group: LPS 150 ng/ml 24 hours, vehicle group 8.34±0.05-fold; for inhibition ratio of COX-2 expression: LPS 150 ng/ml
# Procedure: (§1) BV-2 cells (i.e., a mouse microglial cell line) were cultured in DMEM at a concentration of 2×10^5 cells per mL of the DMEM at 37° C. with 5% CO2 for 16 hours, wherein the DMEM was supplemented with deactivated fetal bovine serum (FBS, 10%), penicillin G (100 units/ml)/streptomycin (100 μg/ml), L-glutamine (3.65 mM), 4-(2-hydroxyethyl)-1-piperazineethanesulfonic acid (HEPES, 18 mM) and NaHCO3 (23.57 mM). […] Then, BV-2 cells were activated by being treated with lipopolysaccharide (LPS, 150 ng/ml) for 24 hours. BV-2 cells were lysed by a cell lysis buffer and centrifuged.
# ICH mouse model [2] = experiment: Neurobehavioral test in collagenase-induced ICH mouse model; type: in vivo; details: 48 hours after ICH; 30 mg/kg orally; minimum 3, maximum 18; ICH group 9.6±1.2
# Procedure: Male C57B2/6J mice (each weighs about 23 to 28 g) were anesthetized with chloral hydrate (400 mg/kg), and then a 1 mm burr hole was drilled 2 mm lateral to the midline and 0.3 mm anterior to the bregma of each mouse. Type VII-S collagenase (0.02 unit dissolved in 1 μl saline) was infused into the area of the caudate/putamen at a rate of 0.2 μl/min for 5 minutes. After an additional period of 5 minutes, the burr hole was occluded. The mice were allowed to recover with a controlled heating lamp and a controlled heating pad (37° C.) and an ICH mouse model was obtained, hereinafter referred to as “ICH group.” Additionally, a pseudo-animal that was handled with the same mode but only infused with an equal volume of normal saline (NS) was obtained, hereinafter referred to as “NS group.”
# At 30 minutes post-collagenase injection, ergostatrien-3β-ol suspended in a 0.5% (w/v) vehicle (e.g., carboxymethyl cellulose (CMC)) was orally administered to the mouse at a dosage of 30 mg/kg. […]
# At 48 hours after ICH was induced by collagenase, three groups of mice mentioned in Example 4 (i.e., the “NS group,” “ICH group” and “ICH+ergostatrien-3β-ol group”) were analyzed by a neurobehavioral test, which includes six tests for spontaneous activity, symmetry in the movement of four limbs, forepaw outstretching, climbing, body proprioception, and response to vibrissae touch. […]
# JNK MAPK = experiment: Phosphorylation of JNK MAPK in LPS-activated BV-2 microglia cells (western blot); type: cell-based, mouse; details: LPS-induced, vehicle group 5.5±0.3 fold
# Procedure: as §1
compound,measurement,setting,value
CC(C)[C@@H](C)/C=C/[C@@H](C)C1CCC2C3=CCC4C[C@@H](O)CC[C@]4(C)C3=CC[C@@]21C (stereo partly shown),brain water content,ICH mouse model [1],80.4±0.3%
same,"MMP-9-mediated gelatinolysis, fold of that of the control group","MMP-9; LPS 500 ng/ml 24 hours, first of three values, 1 μM per b67 (b68 lists 0.5, 1, 5 or 10 μM), vehicle group 3.3±0.4-fold",2.9±0.3 fold
same,"MMP-9-mediated gelatinolysis, fold of that of the control group","MMP-9; LPS 500 ng/ml 24 hours, second of three values, 5 μM, vehicle group 3.3±0.4-fold",2.5±0.3 fold
same,"MMP-9-mediated gelatinolysis, fold of that of the control group","MMP-9; LPS 500 ng/ml 24 hours, third of three values, 10 μM, vehicle group 3.3±0.4-fold",2.1±0.3 fold
same,"MMP-9-mediated gelatinolysis, fold of that of the control group","MMP-9; thrombin 10 units/ml 24 hours, 5 μM, vehicle group 5.5±0.4-fold",5.1±0.4 fold
same,"MMP-9-mediated gelatinolysis, fold of that of the control group","MMP-9; thrombin 10 units/ml 24 hours, 10 μM, vehicle group 5.5±0.4-fold",3.3±0.8 fold
same,"relative expression rate of COX-2, fold of that of the control group",COX-2; 0.5 μM pre-treatment 15 minutes,4.80±0.75 fold
same,inhibition ratio of COX-2 expression,COX-2; 0.5 μM,74%
same,"relative expression rate of COX-2, fold of that of the control group",COX-2; 1 μM pre-treatment 15 minutes,3.91±0.64 fold
same,inhibition ratio of COX-2 expression,COX-2; 1 μM,94%
same,"relative expression rate of COX-2, fold of that of the control group",COX-2; 5 μM pre-treatment 15 minutes,1.92±0.98 fold
same,inhibition ratio of COX-2 expression,COX-2; 5 μM,98%
same,"relative expression rate of COX-2, fold of that of the control group",COX-2; 10 μM pre-treatment 15 minutes,2.14±0.86 fold
same,inhibition ratio of COX-2 expression,COX-2; 10 μM,106%
same,neurobehavioral score,ICH mouse model [2],13.4±1.1
same,"phosphorylation level of JNK MAPK, fold of that of the control group",JNK MAPK; 0.5 μM pre-treatment,5.5±0.9 fold
same,"phosphorylation level of JNK MAPK, fold of that of the control group",JNK MAPK; 1 μM pre-treatment,3.9±0.2 fold
same,"phosphorylation level of JNK MAPK, fold of that of the control group",JNK MAPK; 5 μM pre-treatment,3.5±0.6 fold
same,"phosphorylation level of JNK MAPK, fold of that of the control group",JNK MAPK; 10 μM pre-treatment,2.4±0.3 fold
